Laboratory results published in US20100167265A1, “VACCINE AGAINST INFECTIOUS AGENTS HAVING AN INT[…], COMPOSITION FOR THE TREATMENT AND PREVENTION OF HIV INFECTIONS, ANTIBODIES AND METHOD OF DIAGNOSIS” (INSTITUT NATIONAL de la SANTE ET DE LA RECHERCHE MEDICALE …, priority 1995, published 2010).

Key:
B1G6 monoclonal antibody = experiment: Effect of selected peptides on the neutralization of HIV-1 NDK by B1G6 monoclonal antibody on PBLs; format: cell-based; settings: peptide 100 or 50 μg/ml; B1G6 5 μg/ml
Experimental: The peptides at a concentration of 100 μg/ml or 50 μg/ml (40 μl or 20 μl of the stock solution and 5 mg/ml) are preincubated with 5 μg/ml of B1G6 (10 μl of a stock solution at 1 mg/ml) in a total volume of 110 μl for 2 hours, in tubes on a water bath at 37° C., with gentle stirring. Next, HIV-1 NDK is added (100 μl of a 2×10^−4 dilution of a stock solution and the tubes are incubated for 1 hour at 37° C. on a water bath. The tubes are then separated into two and each 100 μl is added to 10^6 PBLs on a 24-well plate. The cells are cultured for 3 days at 37° C. under an atmosphere with 5% CO2. On day 3, the cells are washed, placed in culture and propagated for at least 20-25 days in a 25 cm^3 round-bottomed flask. The production of virus is monitored every 3 or 4 days by the assay of reverse transcriptase (RT).

R7V = biological target: T1, R7V (Homo sapiens, UniProt P61769); experiment: Immune response of rabbits immunized with peptide-KLH, serum ELISA on peptide; format: in vivo, rabbit
T1 construct: The peptide R7V (RTPKIQV) was extended by 2 amino acids in order to allow the coupling
Experimental: The peptide antigen 7AA is coupled to KLH (Keyhole Limpet Hemocyanin) and injected into rabbits in the presence of complete Freund's adjuvant.
The animals are immunized in the presence of complete Freund's adjuvant at D0, D14, D28, D42 and trial bleedings are carried out before immunization on days 35, 49, 56 and 70.
The peptides used are: RV7-KLH, S7K-KLH and F7E-KLH
The peptide R7V (RTPKIQV) was extended by 2 amino acids in order to allow the coupling. The structure used as immunogen is […].
The antibodies of the rabbits immunized 618 were measured by ELISA, where the peptide coupled to various carrier proteins was used at the bottom of the well (either coupled to KLH, to BSA (Bovine Serum Albumin) or MAP (Multiple Antigenic Peptide)).
The diagrams represent the results obtained at 2 dilutions d100 and d1000, that is to say a 1/100 and 1/1000 dilution of the sera, or at different times. […]
→(Ag)final=1 μg/ml • distribute 100 μl/well, that is to 100 ng/well • incubate 2 h at 37° C. or overnight at 4° C. […] (in a humid atmosphere). • 8) Washes (identical to point 2) • 9) Visualization with OPD • dissolve 10 mg OPD in 25 ml of phosphocitrate buffer (0.1 M, pH 5.5) • add at the last moment 10 μl H2O2 • distribute 100 μl/well and incubate 30 min in the dark at room temperature (may be read at 405 nm) • stop the reaction with 50 μl H2SO4 12.5 k. • 10) Reading at 492 nm.

Row | Substance | canceling of the neutralizing effect of B1G6 on the production of HIV-1 NDK by the PBLs (B1G6 monoclonal antibody) | immune response generated (R7V)
1 | IQRTPQIVKW [compound 189] | lost the canceling effect | –
2 | TLSRTPKIQV [compound 185] | lost the canceling effect | –
3 | RTPKIQV [R7V] | can cancel the neutralizing effect | good immune response
4 | FHPSDIE [F7E] | can cancel the neutralizing effect | –
5 | IQRTPNIVKW [compound 190] | lost the canceling effect | –
